The values that follow come from US20160106719A1, “Transplantation Adjuvant in Cell Therapy Using Neural Progenitor Cells” (SUMITOMO DAINIPPON PHARMA CO., LTD., priority 2013, published 2016).

Molecules are shown by their SMILES.

The subject of assay [1] is re-aggregated PSA-NCAM+ cells (neural progenitor cells derived from mouse iPS cell line 440A3). In words: In vitro differentiation of mouse iPS cell-derived neural progenitor cells into dopaminergic neurons (immunocytochemistry for marker molecules). Format: cell-based. As to the method: DMEM contained 1% fetal bovine serum (FBS), 5% knockout serum replacement (KSR; manufactured by Invitrogen), 0.1 mM non-essential amino acids, 1 mM sodium pyruvate, 0.1 mM 2-mercaptoethanol (2-ME; manufactured by Invitrogen), 2000 U/ml leukemia inhibitory factor (manufactured by Invitrogen), and 1.5 μg/ml puromycin. In order to differentiate and induce the iPS cells into neural cells, serum-free floating culture of embryoid bodies-like aggregates (SFEB) was employed. Specifically, aggregates of the 440A3 cells were separated into individual cells by using 0.25% trypsin/1 mM EDTA (ethylenediaminetetraacetic acid), and the resultant cells were seeded in a 96-well low adhesion plate (product name: Lipidure-Coat Plate A-US96, manufactured by NOF Corporation) at a concentration (cell density) of 3000 cells/well. Thereafter, re-aggregation of the 440A3 cells was induced in a differentiation medium containing GMEM (Glasgow Minimum Essential Medium), 5% KSR, 0.1 mM non-essential amino acids, 1 mM sodium pyruvate and 0.1 mM 2-ME, and this day was defined as day 0 (FIG. 1). During this differentiation process, various factors were added to the differentiation medium for inducing midbrain dopaminergic phenotypes as illustrated in FIG. 1. Specifically, from day 3 to day 7 after starting the SFEB, 20 ng/ml of mouse FGF-8b (manufactured by R & D Systems) was added, from day 4 to day 7 after starting the SFEB, 10 ng/ml of recombinant mouse sonic hedgehog (C25I1) N-terminus (manufactured by R & D Systems) was added, and on and after day 7 after starting the SFEB, 1% N-2 supplement (manufactured by Gibco) and 200 nM ascorbic acid were added. The KSR was removed from the differentiation medium on day 7 after starting the SFEB.
On day 9 after starting the SFEB, the 440A3 cells were washed with phosphate buffered saline (PBS(-)) twice. Thereafter, the 440A3 cells were dissociated into single cells by five-minute incubation performed at 37° C. by using Accumax (manufactured by Innovate Cell Technologies, product name). The cells were collected with a FACS buffer. The FACS buffer was constituted by PBS(-) containing 2% FBS, 20 mM D-glucose and 1% penicillin/streptomycin (P/S, manufactured by Invitrogen). The collected cells were mechanically dissociated into a single cell suspension by a gentle pipetting operation.
Next, the resultant cells were incubated with a mouse anti-PSA-NCAM antibody (dilution rate of 1:200, manufactured by Millipore) at 4° C. for about 30 minutes. Thereafter, a washing operation using a centrifuge was performed twice, and the resultant cells were further incubated for 30 minutes with a secondary antibody of a donkey anti-mouse IgG (dilution rate of 1:400, manufactured by Invitrogen) labeled with AlexaFluor 594. Dead cells and cell debris were excluded by using 7-aminoactinomycin-D (7-AAD, manufactured by BD Pharmigen) stain. The remaining living cells were suspended again at a final concentration (cell density) of 1×10^7 cells/ml. Cell sorting was conducted by using a FACSAria II cell sorter (manufactured by Becton Dickinson And Company) equipped with a 488 nm argon laser, a 633 nm helium-neon laser, a 100 μm nozzle and a FACSDiva software program. A PSA-NCAM positive rate was determined on the basis of a negative control not using a primary antibody.
After the cell sorting, in order to induce the reaggregation of the cells, a PSA-NCAM^+ cell group was seeded in a DMEM/F12 medium (manufactured by Wako Pure Chemical Industries, Ltd.) in a 96-well plate at a concentration (cell density) of 20000 cells/well. The DMEM/F12 medium contained 1% N-2 supplement, 200 nM ascorbic acid, 2% B27 supplement (manufactured by Invitrogen), 0.5 mM L-glutamine and 1% P/S. In order to prevent apoptosis, a ROCK inhibitor, Y-27632 (manufactured by Wako Pure Chemical Industries, Ltd.), was used at a concentration of 30 μM during the cell sorting process and the following overnight cultivation. […]

Assay [2] has as its system TH+ neurons derived from mouse iPS cells. Nature of the assay: In vitro survival of TH+ neurons with caspase 3 expression as index of apoptosis. Conditions: control 18.0±5.9%; no significant difference among four groups. Format: cell-based. The procedure:
After the cell sorting, in order to induce the reaggregation of the cells, a PSA-NCAM^+ cell group was seeded in a DMEM/F12 medium (manufactured by Wako Pure Chemical Industries, Ltd.) in a 96-well plate at a concentration (cell density) of 20000 cells/well. The DMEM/F12 medium contained 1% N-2 supplement, 200 nM ascorbic acid, 2% B27 supplement (manufactured by Invitrogen), 0.5 mM L-glutamine and 1% P/S. In order to prevent apoptosis, a ROCK inhibitor, Y-27632 (manufactured by Wako Pure Chemical Industries, Ltd.), was used at a concentration of 30 μM during the cell sorting process and the following overnight cultivation. On day 10 after starting the SFEB, any one of valproic acid (VPA) (manufactured by Sigma-Aldrich), zonisamide (ZNS) sodium salt (manufactured by Sumitomo Dainippon Pharma Co., Ltd.), 17β estradiol (E2) (manufactured by Sigma-Aldrich), a glial cell line derived neurotrophic factor (GDNF) (manufactured by R & D Systems) and PBS(-) was added to the medium for 4 days. Each of VPA, ZNS and E2 was used at three different concentrations. Specifically, the concentration of VPA was 0.01 mM, 0.1 mM or 1 mM, the concentration of ZNS was 1 μM, 10 μM or 100 μM, and the concentration of E2 was 1 nM, 10 nM or 100 nM. GDNF was added at a concentration of […] to be used as a positive control. […]

Assay [3] relates to grafts derived from human iPS cells. In words: Transplantation experiment of human iPS cell-derived dopamine neural progenitor cells into striatum of SCID rats (immunohistochemistry of grafts). Format: in vivo. Conditions: ZNS at a high dose i.p., four weeks after transplantation. The procedure: Twelve-week-old SCID rats (produced by Institute of Laboratory Animals, Graduate School of Medicine, Kyoto University) were handled in accordance with the Guidelines for Animal Experiments of Kyoto University. The SCID rats were anesthetized, and donor cells were transplanted by stereotaxic injection into striatums on both sides. Dopamine neural progenitor cells (2.7×10^5 cells on average) prepared from 1039A1 cell, that is, a human iPS cell line, were collected in 2 μl of PBS(-) so as to be used as the donor cells for the transplantation in each tract. To the PBS(-), […] was added at a final concentration of 30 μM. Thereafter, intraperitoneal injection of VPA (150 mg/kg/day or 600 mg/kg/day, which are sometimes designated respectively as a high dose and a low dose), ZNS sodium salt (30 mg/kg/day or 60 mg/kg/day, which are sometimes designated respectively as a high dose and a low dose), or a saline was conducted from two days before transplanting the donor cells until a day of necropsy. Four weeks after the transplantation of the donor cells, the brains of the SCID rats were washed and fixed by intracardially perfusing 4% paraformaldehyde under deep anesthesia. On the day of necropsy, a blood sample was collected from each SCID rat one hour after the final injection of the test compound, and the blood concentration of the drug (test compound) was measured.
In an in vitro experiment, a cell aggregate treated with any of the above-described test compounds on day 14 after starting the SFEB was fixed with 4% paraformaldehyde. Thereafter, the fixed cell aggregate was frozen and sliced into thin sections each having a thickness of 10 μM by using a microtome for immunocytochemistry. On the other hand, in an in vivo experiment (transplantation experiment), the brain of a SD rat or a SCID rat was taken out after the transplantation experiment to be fixed again with 4% paraformaldehyde for 2 days. […]

Assay [4] concerns grafts derived from mouse iPS cells. In words: Transplantation experiment of mouse iPS cell-derived dopamine neural progenitor cells into striatum of SD rats (immunohistochemistry of grafts). The assay is classed as in vivo. Conditions: four weeks after transplantation. As to the method:
Ten-week-old Sprague-Dawley rats (SD rats, available from Shimizu Laboratory Supplies Co., Ltd.) were handled in accordance with the Guidelines for Animal Experiments of Kyoto University. Each SD rat was anesthetized, and donor cells were transplanted by stereotaxic injection into striatums on both sides. Two cell aggregates (containing 3.1×10^5 cells on average) obtained on day 9 after starting the SFEB were collected in 1 μl of PBS(-) so as to be used as the donor cells for the transplantation in each tract. To the PBS(-), Y-27632 was added at a final concentration of […]. Thereafter, intraperitoneal injection of VPA (150 mg/kg/day), ZNS sodium salt (30 mg/kg/day), E2 (80 μM/kg/day) or a saline was conducted from two days before transplanting the donor cells until a day of necropsy. For immunosuppression, cyclosporin A (CsA, manufactured by Wako Pure Chemical Industries, Ltd.) was administered to all the SD rats at a daily dose of 10 mg/kg. Four weeks after the transplantation of the donor cells, the brains of the SD rats were washed and fixed by intracardially perfusing 4% paraformaldehyde under deep anesthesia. On the day of necropsy, a blood sample was collected from each SD rat one hour after the final injection of the test compound or CsA. Such a sample was sent to SRL, Inc. (Tokyo, Japan) where the blood concentration of the administered drug (test compound) was measured.
In an in vitro experiment, a cell aggregate treated with any of the above-described test compounds on day 14 after starting the SFEB was fixed with 4% paraformaldehyde. Thereafter, the fixed cell aggregate was frozen and sliced into thin sections each having a thickness of 10 μM by using a microtome for immunocytochemistry. On the other hand, in an in vivo experiment (transplantation experiment), the brain of a SD rat or a SCID rat was taken out after the transplantation experiment to be fixed again with 4% paraformaldehyde for 2 days. Thereafter, the fixed brain of the SD rat or SCID rat was cryopreserved in 30% sucrose for 3 days, frozen, and sliced into thin sections each having a thickness of 40 μM for immunohistochemistry. The frozen sections of the sphere (spherical cell mass) and the brain were subjected to a permeabilization and blocking treatment in PBS(-) for 1 hour at room temperature to be used as samples. The PBS(-) contained 0.3% Triton-X and 2% donkey serum. Thereafter, each of the sections was incubated overnight together with a primary antibody at 4° C. Primary antibodies used in this example are a rabbit anti-tyrosine hydroxylase antibody (dilution rate of 1:400, TH; manufactured by Millipore), a mouse anti-TH antibody (dilution rate of 1:200, manufactured by Millipore), a sheep anti-TH antibody (dilution rate of 1:400, manufactured by Millipore), a mouse anti-Tubβ3 antibody (dilution rate of 1:1000, Tuj1; manufactured by Covance Inc.), a rat anti-NURR1 antibody (dilution rate of 1:1000, KAN Research Institute, Inc., Kobe, Japan), a rabbit anti-Ki67 antibody (dilution rate of 1:1000, manufactured by Novocastra: NCL-Ki67p), a rabbit anti-caspase 3 antibody (dilution rate of 1:500, manufactured by Santa Cruz Biotechnology, Inc.), a rat anti-M2M6 antibody (dilution rate of 1:50, manufactured by Developmental Study Hybridoma Bank), a mouse anti-Nestin antibody (dilution rate of 1:50; manufactured by Millipore), a rabbit anti-Pitx3 antibody (dilution rate of 1:500; manufactured by Chemicon International Inc.), a goat […] antibody (dilution rate of 1:500, Foxa2; manufactured by Santa Cruz Biotechnology, Inc.), a mouse anti-human Nuclei antibody (dilution rate of 1:1000; manufactured by Millipore), and a mouse anti-NeuN antibody (dilution rate of 1:500, manufactured by Chemicon International Inc.). After washing with PBS (0.05% Tween-20) three times, the resultant sample was incubated with an Alexa Fluor-conjugated secondary antibody for 1 hour at room temperature. […]

Where [5] appears, read: ddA or ICI singly added to cells, vs control.

As to `C[C@]12CC[C@@H]3c4ccc(O)cc4CC[C@H]3[C@@H]1CC[C@@H]2O` [E2, 17β estradiol], the “ratio of TH+ cells” value in assay [1] (E2 10 nM, day 10 to 14, control 5.2±1.1%) came out at 12.2±2.3%. In assay [2], the “ratio of dopaminergic neurons undergoing apoptosis (TH+ neurons expressing caspase 3)” value is recorded as “low”.
`C[C@]12CC[C@@H]3c4ccc(O)cc4C[C@@H](CCCCCCCCC[S+]([O-])CCCC(F)(F)C(F)(F)F)[C@H]3[C@@H]1CC[C@@H]2O` (stereo partly drawn) [ICI, ICI182780]: the “ratios of increase in the TH+ cells” value in assay [1] (2 μM ICI added to 10 nM E2) is “remarkably reduced”. In addition, in assay [1] (setting [5]), the “ratio of TH+ cells” value was “not changed as compared with that of the control”.
Turning to `NS(=O)(=O)Cc1noc2ccccc12` [ZNS, 1,2-benzisoxazole-3-methanesulfonamide], the “ratio of TH+ cells that were FOXA2+” value in assay [3] (control 76.3±9.7%) is 91.8±6.2%; in assay [4] (VPA 150 mg/kg/day or ZNS 30 mg/kg/day i.p., control 24.7±9.3%), 80.4±21.1%. For the same molecule, the “number of midbrain dopaminergic neurons (TH+ FOXA2+) in a graft” value is 5889±1821 cells in assay [3] (control 2297±1116 cells) and 835±540 cells in assay [4] (VPA 150 mg/kg/day or ZNS 30 mg/kg/day i.p., control 97±76 cells). For the same molecule, the “number of TH+ cells in a graft” value in assay [3] (control 3026±1349 cells) is given as 6480±2145 cells. In addition, the “ratio of the differentiation of the transplanted NPC into neurons (NeuN+)” value in assay [4] (ZNS sodium salt 30 mg/kg/day i.p., vs control) is listed as “almost equivalent to that of a control”.
For the molecule `C[C@H]1O[C@@H](n2cnc3c(N)ncnc32)C[C@@H]1O` [ddA, 2,5-dideoxyadenosine], in assay [1] (100 μM ddA added to 0.1 mM VPA), the “ratios of increase in the TH+ cells” value is given as “remarkably reduced”. Moreover, in assay [1] (setting [5]), the “ratio of TH+ cells” value is “not changed as compared with that of the control”.
